Measurements reported in US11278550B2, “Compositions and methods for the treatment of Prader-Willi syndrome” (Duke University, priority 2016, dated 2022).
Entries after “also recorded” stand apart in the source; their conditions may differ.

What was measured:
[1] = test system: PWS-IC; assay: Bisulfite genomic sequencing of PWS-IC, liver of PWS mice; assay type: in vivo; details: livers from PWS mouse models
Protocol: Genomic DNA was isolated from human PWS fibroblasts or mouse tissues. DNA (1 μg) was then treated by bisulfite using the Epi-Tect bisulfite kit (Qiagen), and 125 ng input DNA was used per PCR amplification. PCR products were sub-cloned into pGEM-T easy vector (Promega) and an average of 15 clones were sequenced. DNA sequencing results were analyzed using BISMA web-based analysis platform with a setting for individual clones with <95% bisulfite conversion and <90% sequence identity to be excluded in the analysis.

[2] = test system: adult Snrpn-EGFP mouse model; assay: Long-lasting unsilencing in adult Snrpn-EGFP mice; assay type: in vivo; details: 1, 4, and 12 weeks after the last dose; brain
Protocol: (§1) For testing long lasting drug effects, the 6 week-old m^S-EGFP/p^+ mice were treated daily by i.p. injection for seven consecutive days.
(§2) For reverse-transcription PCR (RT-PCR) and quantitative real time RT-PCR (qRT-PCR), first total RNA was extracted from the fibroblasts and/or collected tissues (liver and brain) using Direct-zol RNA Miniprep kit (Zymo Research cat. no. R2070). 2 μg of total RNA was directly used for single strand cDNA synthesis with Superscript III reverse transcriptase (Invitrogen cat. no. 18080-093) according to the manufacturer's protocols. The conditions for RT-PCR were 95° C./5 min, 35-40 cycles of 95° C./30 sec, 56-60° C./60 sec, 72° C./60 sec. Quantification of target gene expression was performed in a LightCycler480 instrument (Roche) using SsoAdvanced Universal SYBR green Supermix (Biorad cat. no. 172-5271) according to the manufacturer's instructions. See Table 4 for primer sequences and conditions used for experiments for RT-PCR, qRT-PCR, bisulfite genomic sequencing, ChIP-qPCR, and chromatin accessibility assay.

[3] = test system: m+/pΔS-U mice; assay: Survival and growth in PWS mouse model; assay type: in vivo; details: between P10 and P19, treated m+/pΔS-U pups
Protocol: The dosage and duration vary depending on the age and condition of animals.
The m/p^ΔS-U pups were treated between postnatal day 7 (P7) and P12, as most m^+/p^ΔS-U pups died before weaning. For neonatal PWS mice, a lower dose regimen of 2.5 mg/kg i.p. injections for 5 consecutive days was used. […] Pups at postnatal day 7 (P7) were treated with a daily dose of 2.5 mg/kg for 5 days.

[4] = target: T1, G9a (Mus musculus, UniProt Q9Z148); details: single dose of 5 mg/kg i.p.; cited from earlier work
T1 construct: from tissue
T1 sequence (Q9Z148 1-1263): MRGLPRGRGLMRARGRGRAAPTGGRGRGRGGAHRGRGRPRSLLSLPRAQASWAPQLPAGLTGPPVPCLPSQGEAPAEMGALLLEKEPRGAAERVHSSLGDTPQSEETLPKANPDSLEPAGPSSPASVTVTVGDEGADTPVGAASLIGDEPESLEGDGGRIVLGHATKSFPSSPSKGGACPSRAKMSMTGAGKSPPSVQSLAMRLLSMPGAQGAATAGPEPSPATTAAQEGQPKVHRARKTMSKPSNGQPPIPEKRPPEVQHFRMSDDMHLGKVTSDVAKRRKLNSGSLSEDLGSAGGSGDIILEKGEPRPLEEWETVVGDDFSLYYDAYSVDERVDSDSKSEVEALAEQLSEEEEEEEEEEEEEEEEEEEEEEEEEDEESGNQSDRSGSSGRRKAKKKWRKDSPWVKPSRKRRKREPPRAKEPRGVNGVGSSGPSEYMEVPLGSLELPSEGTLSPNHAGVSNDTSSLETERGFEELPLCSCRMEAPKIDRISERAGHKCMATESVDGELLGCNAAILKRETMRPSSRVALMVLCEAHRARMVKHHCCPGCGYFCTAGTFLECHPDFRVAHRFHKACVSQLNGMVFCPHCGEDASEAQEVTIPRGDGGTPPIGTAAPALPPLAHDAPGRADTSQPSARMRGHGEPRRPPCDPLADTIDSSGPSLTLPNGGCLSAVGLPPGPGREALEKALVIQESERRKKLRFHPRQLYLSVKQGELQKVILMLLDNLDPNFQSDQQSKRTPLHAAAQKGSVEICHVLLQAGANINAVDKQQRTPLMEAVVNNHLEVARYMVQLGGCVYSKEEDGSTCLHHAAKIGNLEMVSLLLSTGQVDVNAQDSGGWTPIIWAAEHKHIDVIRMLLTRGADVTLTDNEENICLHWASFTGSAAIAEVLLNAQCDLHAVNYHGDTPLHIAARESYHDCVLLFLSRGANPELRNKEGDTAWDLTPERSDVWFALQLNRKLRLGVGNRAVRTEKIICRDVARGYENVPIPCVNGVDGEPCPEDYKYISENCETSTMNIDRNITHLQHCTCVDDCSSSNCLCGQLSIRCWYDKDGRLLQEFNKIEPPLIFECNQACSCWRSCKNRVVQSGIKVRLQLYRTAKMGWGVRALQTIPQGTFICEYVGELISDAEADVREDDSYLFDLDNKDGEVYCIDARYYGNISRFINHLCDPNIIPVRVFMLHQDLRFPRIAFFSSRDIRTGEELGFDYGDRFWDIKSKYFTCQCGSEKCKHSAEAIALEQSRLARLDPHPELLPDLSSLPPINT

[5] = in vivo; cited from earlier work
[6] = test system: m+/pΔS-U mice; assay: RNA and protein expression in PWS mouse tissues; assay type: in vivo
Protocol: as §1
Western blot analysis was performed as previously described by Wang, et al., Molecular Autism 5, 30 (2014). Briefly, total protein was extracted from collected tissues (liver and brain) using modified RIPA buffer (1× PBS, 1% Triton X-100, 0.1% SDS, 2 mM EDTA, and protease inhibitors). SDS-PAGE resolved 25 μg of total proteins and they were transferred to polyvinylidene difluoride (PVDF) membranes. The PVDF membranes were blocked with BLOTTO (5% skim milk and 0.1% Tween-20 in 1× TBS buffer), and incubated with primary target antibodies, rabbit anti-Snrpn (Protein Tech, cat. no. 11070-1-AP) at 1:400, and rabbit anti-Ube3a (Bethyl Lab, cat. no. A300-352A-T) at 1:1,000 working concentration in BLOTTO at 4° C. overnight. The next day, following incubation with horseradish peroxidase-conjugated secondary antibodies, the membranes were incubated with a Pierce chemiluminescent substrate and exposed to X-ray film or imaged by AI600 (GE Healthcare Life Science).
as §2

[7] = test system: several cell lines; details: cited from earlier work
[8] = test system: human PWS fibroblast cells; assay: Cell viability (CellTox Green Cytotoxicity Assay); assay type: cell-based; details: 1-4 μM, 72 hours
Protocol: Cell viability was measured by fluorescence using CellTox™ Green Cytotoxicity Assay (Promega, cat. no. G8741) according to the manufacturer's instructions.

[9] = test system: human PWS fibroblasts; assay: Western blot of SNRPN protein in human PWS fibroblasts; assay type: cell-based; details: 4 μM, 72 hr

COc1cc2c(NC3CCN(C(C)C)CC3)nc(N3CCC(F)(F)CC3)nc2cc1OCCCN1CCCC1 [UNC0642]
DNA methylation of the PWS-IC [1]: did not significantly alter | maternal expression of Snrpn-EGFP [2]: long lasting effect | growth (body weight) [3]: significant improvement of growth | inhibition of G9a activity in adult mice [4]: sufficient to inhibit G9a activity | pharmacokinetic properties such as central nervous system penetration [5]: superior to UNC0638 | level of Ube3a-AS RNA ([6]; brain): not affected | expression of Snrpn and Snord116 ([6]; brain and liver, around P14, RT-PCR and qRT-PCR): readily detectable | Ube3a protein level ([6]; whole brain and cerebellum): not changed; also recorded: not affected | cell toxicity [7]: low cell toxicity

COc1cc2c(NC3CCN(C(C)C)CC3)nc(C3CCCCC3)nc2cc1OCCCN1CCCC1 [UNC0638]
cytotoxicity [8]: minimal cytotoxicity | SNRPN protein, of normal levels [9]: approximately 30%
